How the values were obtained:
[1] = Roundtable assessment of off taste (scale 0 to 6); assay type: in vivo; parameters: key: 0 = none; 1 = trace/faint; 2 = slight; 3 = moderate; 4 = definite; 5 = strong; 6 = extreme
[2] = Overall sweetness quality preference; assay type: in vivo; parameters: key: ! = preferred; !! = very preferred; !!! = most preferred
Description: A series of assays were carried out to determine overall sweetness quality preference for steviol glycoside with sensory modifier compound. Solutions of steviol glycosides and sensory modifier compound were prepared at varying concentrations of steviol glycoside and sensory modifier compound. The steviol glycoside was RebM and the sensory modifier compound was monocaffeoylquinic and dicaffeoylquinic acids prepared from yerba mate. The concentration of steviol glycosides was between 0 ppm and 1600 ppm. The concentration of sensory modifier compound was between 0 ppm and 1600 ppm. The solutions were tested for overall sweetness quality preference (!=preferred, !!=very preferred, and !!!=most preferred).

C=C1C[C@@]23CC[C@H]4[C@@](C)(CCC[C@@]4(C)C(=O)O[C@@H]4O[C@H](CO)[C@@H](O)[C@H](O[C@@H]5O[C@H](CO)[C@@H](O)[C@H](O)[C@H]5O)[C@H]4O[C@@H]4O[C@H](CO)[C@@H](O)[C@H](O)[C@H]4O)[C@@H]2CC[C@]1(O[C@@H]1O[C@H](CO)[C@@H](O)[C@H](O[C@@H]2O[C@H](CO)[C@@H](O)[C@H](O)[C@H]2O)[C@H]1O[C@@H]1O[C@H](CO)[C@@H](O)[C@H](O)[C@H]1O)C3 [RebM, Rebaudioside M]
Off taste ([1]; RebM 700 ppm + cichoric acid (tartaric backbone) 514 ppm): 0
Off taste ([1]; RebM 700 ppm + cichoric acid (tartaric backbone) 772 ppm): 0
Off taste ([1]; RebM 700 ppm + rosmarinic acid 391 ppm): 2
Sweetness Quality preferred ([2]; quinic acid backbone modifier 400 ppm, RebM 600 ppm): !!
Sweetness Quality preferred ([2]; quinic acid backbone modifier 400 ppm, RebM 700 ppm): !!
Sweetness Quality preferred ([2]; quinic acid backbone modifier 500 ppm, RebM 600 ppm): !
Sweetness Quality preferred ([2]; quinic acid backbone modifier 500 ppm, RebM 700 ppm): !!!
Sweetness Quality preferred ([2]; quinic acid backbone modifier 600 ppm, RebM 400 ppm): !
Sweetness Quality preferred ([2]; quinic acid backbone modifier 600 ppm, RebM 700 ppm): !
Sweetness Quality preferred ([2]; quinic acid backbone modifier 700 ppm, RebM 800 ppm): !!
Sweetness Quality preferred ([2]; quinic acid backbone modifier 800 ppm, RebM 400 ppm): !
Sweetness Quality preferred ([2]; quinic acid backbone modifier 800 ppm, RebM 600 ppm): !
Sweetness Quality preferred ([2]; quinic acid backbone modifier 800 ppm, RebM 700 ppm): !
